Data taken from US10683297B2 (Sunshine Lake Pharma Co., Ltd., priority 2017, dated 2020).
pIC50: −log10 of the molar value.

Columns and labels:
[1] = molecular target: T1, Aurora-B (h) (Homo sapiens, UniProt Q96GD4); experiment: Aurora-B (h) kinase assay; format: biochemical; conditions: [γ-33P-ATP] 10 μM or KM values; 40 minutes at room temperature
T1 construct: purchased Millipore UK Ltd (assays performed there as a service)
Method: (§1) The above assay procedure can be used to determine the IC50 for inhibition and/or the inhibition constant, Ki. […] The IC50 value is estimated by preparing a 10 point curve using a ½ log dilution series (for example, a typical curve may be prepared using the following compound concentrations: 3 μM, 1 μM, 0.3 μM, 0.1 μM, 0.03 μM, 0.01 μM, 0.003 μM, 0.001 μM, 0.0003 μM and 0 μM).
Aurora-B (h) is incubated with 8 mM MOPS pH 7.0, 0.2 mM EDTA, 30 μM […], 10 mM MgAcetate and [γ-^33PATP] […] The reaction is initiated by the addition of the MgATP mix. After incubation for 40 minutes at room temperature, the reaction is stopped by the addition of a 3% phosphoric acid solution. 10 μL of the reaction is then spotted onto a P30 filtermat and washed three times for 5 minutes in 75 mM phosphoric acid and once in methanol prior to drying and scintillation counting.
(§2) The kinase assays described herein were performed at Millipore UK Ltd, Dundee Technology Park, Dundee DD2 1SW, UK.

[2] = molecular target: T2, Aurora-A (h) (Homo sapiens, UniProt O14965); experiment: Aurora-A (h) kinase assay; format: biochemical; conditions: [γ-33P-ATP] 10 μM or KM values; 40 minutes at room temperature
T2 construct: purchased Millipore UK Ltd (assays performed there as a service)
T2 sequence (O14965 1-403): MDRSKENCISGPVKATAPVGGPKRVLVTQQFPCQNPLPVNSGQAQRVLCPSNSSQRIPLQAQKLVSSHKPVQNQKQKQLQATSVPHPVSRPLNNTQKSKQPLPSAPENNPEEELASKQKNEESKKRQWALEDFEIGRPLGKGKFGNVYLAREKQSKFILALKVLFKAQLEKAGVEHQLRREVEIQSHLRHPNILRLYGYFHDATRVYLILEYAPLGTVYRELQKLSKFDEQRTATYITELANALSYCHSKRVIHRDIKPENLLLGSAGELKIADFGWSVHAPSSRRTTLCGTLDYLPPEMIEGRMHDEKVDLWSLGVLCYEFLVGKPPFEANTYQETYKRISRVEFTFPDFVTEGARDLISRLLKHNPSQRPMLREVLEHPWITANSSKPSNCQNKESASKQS
Method: as §1
Aurora-A (h) is incubated with 8 mM MOPS pH 7.0, 0.2 mM EDTA, 200 μM LRRASLG (Kemptide), 10 mM MgAcetate and [γ-^33P-ATP] […] The reaction is initiated by the addition of the MgATP mix. After incubation for 40 minutes at room temperature, the reaction is stopped by the addition of 3% phosphoric acid solution. 10 μL of the reaction is then spotted onto a P30 filtermat and washed three times for 5 minutes in 75 mM phosphoric acid and once in methanol prior to drying and scintillation counting.
as §2

T1 sequence (Q96GD4 whole entry): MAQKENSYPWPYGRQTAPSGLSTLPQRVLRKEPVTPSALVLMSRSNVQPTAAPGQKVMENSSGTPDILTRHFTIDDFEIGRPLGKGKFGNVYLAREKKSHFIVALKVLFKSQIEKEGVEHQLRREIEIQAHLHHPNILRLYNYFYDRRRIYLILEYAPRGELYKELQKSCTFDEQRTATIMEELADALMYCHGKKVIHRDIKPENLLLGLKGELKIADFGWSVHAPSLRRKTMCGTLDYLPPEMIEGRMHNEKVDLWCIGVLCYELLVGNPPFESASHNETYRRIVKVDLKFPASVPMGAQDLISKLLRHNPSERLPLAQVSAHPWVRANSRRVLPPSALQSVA

SMILES | pIC50 [1] | pIC50 [2]
CC(C)(O)c1cn2ccc(Nc3ncc(Cl)c(NC4CCN(c5ccc(C#N)cn5)CC4)n3)cc2n1 [Example 70, 6-(4-((5-chloro-2-((2-(2-hydroxypropan-2-yl)imidazo[1,2-a]pyridin-7-yl)amino)pyrimidin-4-yl)amino)piperidin-1-yl)nicotinonitrile] | 6.90 | –
N#Cc1ccc(N2CCC(Nc3nc(Nc4ccc5c(c4)nnn5CC4CC4)ncc3Cl)CC2)nc1 [Example 60, 6-(4-((5-chloro-2-((1-(cyclopropylmethyl)-1H-benzo[d][1,2,3]triazol-5-yl)amino)pyrimidin-4-yl)amino)piperidin-1-yl)nicotinonitrile] | 6.67 | 6.67
CC(O)Cn1cnc2cc(Nc3ncc(Cl)c(NC4CCN(c5ccc(C#N)cn5)CC4)n3)ccc21 (stereo not shown) [Example 61, 6-(4-((5-chloro-2-((1-(2-hydroxypropyl)-1H-benzo[d]imidazol-5-yl)amino)pyrimidin-4-yl)amino)piperidin-1-yl)nicotinonitrile] | 7.30 | 6.95
CC(C)(O)Cc1cn2cc(Nc3ncc(Cl)c(NC4CCN(c5ccc(C#N)cn5)CC4)n3)ccc2n1 [Example 73, 6-(4-((5-chloro-2-((2-(2-hydroxy-2-methylpropyl)imidazo[1,2-a]pyridin-6-yl)amino)pyrimidin-4-yl)amino)piperidin-1-yl)nicotinonitrile] | 7.89 | –
CCC1CN(c2ccc(C#N)nn2)CCC1Nc1nc(Nc2ccn3c(C)cnc3c2)ncc1Cl (stereo not shown) [Example 3, 6-(4-((5-chloro-2-((3-methylimidazo[1,2-a]pyridin-7-yl)amino)pyrimidin-4-yl)amino)-3-ethylpiperidin-1-yl)pyridazine-3-carbonitrile] | 6.99 | –
CC(C)(O)c1cnc2cc(Nc3ncc(Cl)c(NC4CCN(c5ccc(C#N)cn5)CC4)n3)ccn12 [Example 68, 6-(4-((5-chloro-2-((3-(2-hydroxypropan-2-yl)imidazo[1,2-a]pyridin-7-yl)amino)pyrimidin-4-yl)amino)piperidin-1-yl)nicotinonitrile] | 6.65 | –
Cn1nnc2cc(Nc3ncc(Cl)c(NC4CCN(c5ccc(C#N)nn5)CC4)n3)ccc21 [Example 47, 6-(4-((5-chloro-2-((l-methyl-1H-benzo[d][1,2,3]triazol-5-yl)amino)pyrimidin-4-yl)amino)piperidin-1-yl)pyridazine-3-carbonitrile] | – | 6.94
CCC1CN(c2ccc(C#N)cn2)CCC1Nc1nc(Nc2ccn3c(C)cnc3c2)ncc1Cl (stereo not shown) [Example 2, 6-(4-((5-chloro-2-((3-methylimidazo[1,2-a]pyridin-7-yl)amino)pyrimidin-4-yl)amino)-3-ethylpiperidin-1-yl)nicotinonitrile] | 7.34 | –
CC(C)(O)Cc1nnc2cc(Nc3ncc(Cl)c(NC4CCN(c5ccc(C#N)cn5)CC4)n3)ccn12 [Example 74, 6-(4-((5-chloro-2-((3-(2-hydroxy-2-methylpropyl)-[1,2,4]triazolo[4,3-a]pyridin-7-yl)amino)pyrimidin-4-yl)amino)piperidin-1-yl)nicotinonitrile] | 7.34 | –
Cc1nc2cc(Nc3ncc(Cl)c(NC4CCN(c5ccc(C#N)cn5)CC4)n3)ccn2n1 [Example 32, 6-(4-((5-chloro-2-((2-methyl-[1,2,4]triazolo[1,5-a]pyridin-7-yl)amino)pyrimidin-4-yl)amino)piperidin-1-yl)nicotinonitrile] | – | 6.18
CC(C)(O)c1nnc2cc(Nc3ncc(Cl)c(NC4CCN(c5ccc(C#N)cn5)CC4)n3)ccn12 [Example 40] | – | 6.92
CC(C)(O)Cn1nnc2cc(Nc3ncc(Cl)c(NC4CCN(c5ccc(C#N)cn5)CC4)n3)ccc21 [Example 69, 6-(4-((5-chloro-2-((1-(2-hydroxy-2-methylpropyl)-1H-benzo[d][1,2,3]triazol-5-yl)amino)pyrimidin-4-yl)amino)piperidin-1-yl)nicotinonitrile] | 7.35 | 7.40
Cn1cnc2cc(Nc3ncc(Cl)c(NC4CCN(c5ccc(C#N)cn5)CC4)n3)ccc21 [Example 46, 6-(4-((5-chloro-2-((1-methyl-1H-benzo[d]imidazol-5-yl)amino)pyrimidin-4-yl)amino)piperidin-1-yl)nicotinonitrile] | – | 6.73
N#Cc1ccc(N2CCC(Nc3nc(Nc4ccn5c(C(F)F)nnc5c4)ncc3Cl)CC2)nc1 [Example 30, 6-(4-((5-chloro-2-((3-(difluoromethyl)-[1,2,4]triazolo[4,3-a]pyridin-7-yl)amino)pyrimidin-4-yl)amino)piperidin-1-yl)nicotinonitrile] | – | 6.20
CC(C)(O)Cc1nc2ccc(Nc3ncc(Cl)c(NC4CCN(c5ccc(C#N)cn5)CC4)n3)cn2n1 [Example 67, 6-(4-((5-chloro-2-((2-(2-hydroxy-2-methylpropyl)-[1,2,4]triazolo[1,5-a]pyridin-6-yl)amino)pyrimidin-4-yl)amino)piperidin-1-yl)nicotinonitrile] | 6.10 | 6.01
Cc1nc2cc(Nc3ncc(Cl)c(NC4CCN(c5ccc(C#N)cn5)CC4)n3)ccc2n1C [Example 48, 6-(4-((5-chloro-2-((1,2-dimethyl-1H-benzo[d]imidazol-5-yl)amino)pyrimidin-4-yl)amino)piperidin-1-yl)nicotinonitrile] | – | 6.50

Other lines, results leading:

pIC50 [1] | pIC50 [2] | SMILES
6.88 | 6.16 | CC(C)(O)Cc1nc2cc(Nc3ncc(Cl)c(NC4CCN(c5ccc(C#N)nn5)CC4)n3)ccn2n1 [Example 77, 6-(4-((5-chloro-2-((2-(2-hydroxy-2-methylpropyl)-[1,2,4]triazolo[1,5-a]pyridin-7-yl)amino)pyrimidin-4-yl)amino)piperidin-1-yl)pyridazine-3-carbonitrile]
6.70 | < 6.52 | CC(C)(O)c1nc2cc(Nc3ncc(Cl)c(NC4CCN(c5ccc(C#N)nn5)CC4)n3)ccn2n1 [Example 55, 6-(4-((5-chloro-2-((2-(2-hydroxypropan-2-yl)-[1,2,4]triazolo[1,5-a]pyridin-7-yl)amino)pyrimidin-4-yl)amino)piperidin-1-yl)pyridazine-3-carbonitrile]
6.94 | 6.55 | Cc1cnc2cc(Nc3ncc(Cl)c(NC4CCN(c5ccc(C#N)nn5)CC4)n3)ccn12 [Example 12, 6-(4-((5-chloro-2-((3-methylimidazo[1,2-a]pyridin-7-yl)amino)pyrimidin-4-yl)amino)piperidin-1-yl)pyridazine-3-carbonitrile]
– | < 6.52 | CC(O)Cc1nc2cc(Nc3ncc(Cl)c(NC4CCN(c5ccc(C#N)nn5)CC4)n3)ccn2n1 (stereo not shown) [Example 56, 6-(4-((5-chloro-2-((2-(2-hydroxypropyl)-[1,2,4]triazolo[1,5-a]pyridin-7-yl)amino)pyrimidin-4-yl)amino)piperidin-1-yl)pyridazine-3-carbonitrile]
– | 6.15 | CC(C)(O)c1nc2cc(Nc3ncc(Cl)c(NC4CCN(c5ccc(C#N)cn5)CC4)n3)ccn2n1 [Example 39, 6-(4-((5-chloro-2-((2-(2-hydroxypropan-2-yl)-[1,2,4]triazolo[1,5-a]pyridin-7-yl)amino)pyrimidin-4-yl)amino)piperidin-1-yl)nicotinonitrile]
6.73 | 6.25 | CC(C)(O)Cc1nc2cc(Nc3ncc(Cl)c(NC4CCN(c5ccc(C#N)cn5)CC4)n3)ccn2n1 [Example 78, 6-(4-((5-chloro-2-((2-(2-hydroxy-2-methylpropyl)-[1,2,4]triazolo[1,5-a]pyridin-7-yl)amino)pyrimidin-4-yl)amino)piperidin-1-yl)nicotinonitrile]
6.74 | – | CC(C)(O)Cc1nnc2cc(Nc3ncc(Cl)c(NC4CCN(c5ccc(C#N)nn5)CC4)n3)ccn12 [Example 75, 6-(4-((5-chloro-2-((3-(2-hydroxy-2-methylpropyl)-[1,2,4]triazolo[4,3-a]pyridin-7-yl)amino)pyrimidin-4-yl)amino)piperidin-1-yl)pyridazine-3-carbonitrile]
